Reference: PMC5630632, “Assessing inhibitors of mutant isocitrate dehydrogenase using a suite of pre-clinical discovery assays” (Scientific Reports, 2017)
Positions count from the first letter of the chain named. In brackets after ≈: the same amount, converted by molar mass. Read-outs that look alike come from different tables or passages of the source.

What was measured:
[1] = High-throughput kinetic solubility (µSOL), pH 7.4; type: physicochemical; settings: aqueous solution pH 7.4, pH 7.4, aqueous buffer, kinetic from dmso stock; read-out: HT Kinetic Solubility, Solubility
Experimental: High-Throughput kinetic solubility test assay
Pion’s patented µSOL assay for kinetic solubility determination was used. In this assay, the classical saturation shake- flask solub ility method was adapted to a 96-well microtiter plate format and a co-solvent method with n- propanol as the […] was utilized. Test compounds were prepared in 10 mM DMSO solutions (45 µ L), and diluted with the co-solve nt to a final drug conce ntration of […]
Samples are incubated at room temperature for 6 hrs t o achieve equilibrium. The samples were then filtered to remove any precipitate formed. The concentrat ion of the compound in the filtrate was measured by UV ab sorbance. […]
used for quantitation of unknown drug concent ration in filtrate. Spectroscopically pure 1- Propanol was used as acosolvent to suppress precipitation in the reference

[2] = High-throughput PAMPA (GIT), pH 7.4; type: in vitro ADME; settings: read-out: HT PAMPA Permeability
Text: In Vitro Physicochemical and Drug Metabolism Studies:
High-Throughput PAMPA assay
The stirring double- sin k PAMPA method patented by pION Inc. (Billeri ca, MA) was employed to determine the permeability of compounds via PAMPA passive diffusion. The PAMPA lipid membrane consisted of an artificial membrane of a proprietary lipid mixture and dodecane (Pion Inc.), optimized to predict gastrointestinal tract (GIT) passive diffusion permeability, was immobilized on a plastic matrix of a 96 well “donor” filter plate placed above a 96 well “a cceptor” plate. A pH 7.4 solution was used in both donor and acceptor wells. The test articles, stocked in 10 mM DMSO solutions, were diluted to 0.05 mM in aqueous buffer (pH 7.4) , and the concentration of DMSO was 0.5% in the final solution. During the 30-min permeation period at room temperature, the test samples in the donor compartment were stirred using the Gutbox te chnology (Pion Inc.) to reduce the unstirred water layer. The test article concentrations in the donor and acceptor compartments were measured using an UV plate reader (Nano Quant, Infinite 200 […]
PRO, Tecan Inc., Männedorf, Switzerland). Permeability calculations were performed using Pion Inc. software and were expressed in units of 10-6 cm/s. […]

[3] = Microsomal metabolic stability, mouse; type: in vitro ADME; settings: pH 7.4; mouse liver microsomes
[4] = Microsomal metabolic stability, rat; type: in vitro ADME; settings: pH 7.4; rat liver microsomes
[5] = Microsomal metabolic stability, human; type: in vitro ADME; settings: pH 7.4; human liver microsomes
[6] = Human plasma protein binding (rapid equilibrium dialysis, Cyprotex); type: in vitro ADME; settings: for fraction unbound at 4 h, 5 µM: human, plasma, human plasma
[7] = target: T1, hERG channel (Homo sapiens, UniProt Q12809); assay: hERG FluxOR-based thallium flux assay; type: cell-based; settings: In Vitro Toxicity; for Emax: human, U2OS cells transduced with hERG-BacMam virus
T1 construct: host or cells: U2OS cells (ATCC)

[8] = in vitro; settings: human, Caco-2
[9] = Human hepatocyte cytotoxicity (CellTiter-Glo, 72 hr); settings: both, human, cryopreserved human hepatocytes
[10] = system: human hepatocytes; assay: as above; settings: Homo sapiens, Hepatocyte, read-out: Human Hepatocytes EC50
[11] = target: IDH1 WT (Homo sapiens, UniProt O75874); assay: Wild type IDH1 enzyme assay, diaphorase/resazurin coupled; settings: for Emax: read-out: IDH1 WT % EMax
[12] = target: T2, IDH2 WT (Homo sapiens, UniProt P48735); assay: Wild type IDH2 enzyme assay, diaphorase/resazurin coupled
T2 sequence (P48735 40-452): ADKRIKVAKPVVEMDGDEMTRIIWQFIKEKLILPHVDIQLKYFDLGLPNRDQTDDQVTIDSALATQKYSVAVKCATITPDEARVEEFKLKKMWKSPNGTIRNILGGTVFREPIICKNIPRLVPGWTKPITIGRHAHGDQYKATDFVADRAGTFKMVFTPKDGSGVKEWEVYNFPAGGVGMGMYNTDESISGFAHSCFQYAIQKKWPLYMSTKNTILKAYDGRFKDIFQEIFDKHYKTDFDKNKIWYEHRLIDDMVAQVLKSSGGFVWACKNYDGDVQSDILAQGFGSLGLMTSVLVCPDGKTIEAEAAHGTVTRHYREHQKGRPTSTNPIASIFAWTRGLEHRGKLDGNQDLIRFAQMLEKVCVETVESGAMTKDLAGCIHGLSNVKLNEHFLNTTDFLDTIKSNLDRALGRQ

[13] = target: T3, R172Q mIDH2 (Homo sapiens, UniProt P48735, R172Q); assay: mIDH2-R172Q enzyme assay (Reaction Biology), diaphorase/resazurin coupled; settings: for Emax: read-out: IDH2 R172Q % EMax
T3 sequence (P48735 40-452 R172Q): T2 sequence (P48735 40-452) with R133Q

[14] = system: RBE (R132S) cells; assay: 2-HG production, monolayer (2D), mass spectrometry, RBE; type: cell-based; settings: Homo sapiens, mass spec; for Emax: read-out: 2D Cellular 2HG Production (Mass Spec) RBE (R132S) % EMax; for EC50: read-out: 2D Cellular 2HG Production (Mass Spec) RBE (R132S) EC50
Experimental: (§1) (Supplementary Table 2). Inhibition of the target was assessed by quantitative measurement of 2-HG levels in extracellular media of monolayer (or 2-dimentional, 2D) cultures following incubation (48 hrs) with inhibitors. […]
(§2) treated 96-well plates (Corning) at a density of 8000 cells/well/100 μL . Plates were sealed with gas permeable membranes (Research Products International Corp.) and incubated at 37°C, 5% CO2, 90% RH for 24 hr. Growth media was subsequently aspirated and replaced with 100 μL of a solution of growth media cont aining either vehicle DMSO or indicated mIDH1 inhibitor. Each compound was tested as an 8-point dilution series ranging from 5 μM to 2.3 nM. After 48 hr treatment, 75 μL of the exhausted media was collected and snap frozen on dry ice. Samples were analyzed by LC-MS for 2- HG concentrations using Rapidfire / Mass Spectrometry (Quintara) (4) . Remaining cells were assessed for viability by adding 100 μL of fresh media and 50 μL of CellTiter-Glo reagent (Promega) as per manufacturer instructions. Luminescence was read using a Vi ewLux High-throu ghpu t CCD imager (PerkinElmer) equipped with clear filters.

[15] = system: JJ012 (R132G) cells; assay: 2-HG production, monolayer (2D), mass spectrometry, JJ012; type: cell-based; settings: Homo sapiens, mass spec; for Emax: read-out: 2D Cellular 2HG Production (Mass Spec) JJ012 (R132G) % EMax; for EC50: read-out: 2D Cellular 2HG Production (Mass Spec) JJ012 (R132G) EC50
Experimental: as §1, §2

[16] = system: JJ012 (R132G) 3D cellular spheroids; assay: 2-HG production, spheroids (3D), JJ012; type: cell-based; settings: Homo sapiens; 3D spheroid, mass spec
Text: (§3) To evaluate the effect of mIDH1 inhibitors in more relevant models of solid tumors, we adapted a 3-dimensional (3D) multicellular tumor spheroid assay to monitor spheroid formation and 2-HG production. Small molecules can have diminished efficacy in multicellular tumor spheroid models due to limited penetration and the heterogeneous nature of the 3D tumor spheroid[39],[40]. We began by testing the 6 aforementioned cell lines for their ability to form spheroids in ultra-low attachment plates at varying cell concentrations (1000–5000 cells/well). […] Overall, spheroids produced less extracellular 2-HG than cells cultured in monolayer (Fig. 7B).
(§4) Using these simple 3D models of solid tumors, we assessed the ability of inhibitors to reduce 2-HG production.
(§5) 2-HG production: Cells grown as spheroids (3D)
(§6) (RBE) cells/well/150 μ L to form spheroids. Of note, we were not able to obtain spheroids using SNU1079 cells. Plates were sealed with gas permeable membranes, centrifuged at 40 rcf for 1 min, and incubated at 37°C, 5% CO2, 90% RH for 96 (HT108 0, U87 and JJ01 2) or 4 8 (RBE) h r. Cells were washed (by remo ving 10 0 μL of exhausted media and re placing it with 100 μL of growth media, twice) and treated with 50 μL of a solution of media containing the indicated compounds. Each compound was tested as an 8-point dilution series ranging from 5 μM to 2.3 nM.
(§7) After 96 hr of t reatment, 100 μL of the exhausted media was collected and snap frozen on dry ice. Samples were analyzed by LC -MS for 2- HG concentrations using Rapidfire /Mass Spectrometry (Quintara) ( 4) . Plates were first imaged on the Celigo Imaging Cytometer (Ne xcelom Bioscience) to quantify area of each spheroid. Cell viability was subsequently measured using the CellTiter-Glo assay with some modifications: 50 μL of a solution of CellTiter-Glo reagent containing a final concentration of 0.025 % Trypsin (Thermo Sci entific) was added to each well and plates were shaken at 500 rpm for 30 min before reading.

[17] = system: RBE (R132S) 3D cellular spheroids; assay: 2-HG production, spheroids (3D), RBE; type: cell-based; settings: Homo sapiens; 3D spheroid, mass spec
Text: as §3, §4, §5, §6, §7

[18] = read-out: Human Plasma Protein Binding % Bound (converted)
[19] = read-out: Human Plasma Protein Binding % Unbound

IDH1 WT, sequence (O75874 whole entry): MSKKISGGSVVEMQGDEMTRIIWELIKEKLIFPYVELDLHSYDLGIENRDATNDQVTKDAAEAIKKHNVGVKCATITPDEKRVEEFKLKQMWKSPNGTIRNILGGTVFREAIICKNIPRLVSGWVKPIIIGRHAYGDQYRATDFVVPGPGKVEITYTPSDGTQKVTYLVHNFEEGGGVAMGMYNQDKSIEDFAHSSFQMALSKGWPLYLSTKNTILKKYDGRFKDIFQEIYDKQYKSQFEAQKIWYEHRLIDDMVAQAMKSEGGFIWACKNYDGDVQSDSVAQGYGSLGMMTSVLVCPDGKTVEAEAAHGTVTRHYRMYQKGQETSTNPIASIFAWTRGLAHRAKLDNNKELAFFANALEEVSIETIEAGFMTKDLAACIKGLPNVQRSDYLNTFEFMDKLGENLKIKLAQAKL
T1 sequence (Q12809 whole entry): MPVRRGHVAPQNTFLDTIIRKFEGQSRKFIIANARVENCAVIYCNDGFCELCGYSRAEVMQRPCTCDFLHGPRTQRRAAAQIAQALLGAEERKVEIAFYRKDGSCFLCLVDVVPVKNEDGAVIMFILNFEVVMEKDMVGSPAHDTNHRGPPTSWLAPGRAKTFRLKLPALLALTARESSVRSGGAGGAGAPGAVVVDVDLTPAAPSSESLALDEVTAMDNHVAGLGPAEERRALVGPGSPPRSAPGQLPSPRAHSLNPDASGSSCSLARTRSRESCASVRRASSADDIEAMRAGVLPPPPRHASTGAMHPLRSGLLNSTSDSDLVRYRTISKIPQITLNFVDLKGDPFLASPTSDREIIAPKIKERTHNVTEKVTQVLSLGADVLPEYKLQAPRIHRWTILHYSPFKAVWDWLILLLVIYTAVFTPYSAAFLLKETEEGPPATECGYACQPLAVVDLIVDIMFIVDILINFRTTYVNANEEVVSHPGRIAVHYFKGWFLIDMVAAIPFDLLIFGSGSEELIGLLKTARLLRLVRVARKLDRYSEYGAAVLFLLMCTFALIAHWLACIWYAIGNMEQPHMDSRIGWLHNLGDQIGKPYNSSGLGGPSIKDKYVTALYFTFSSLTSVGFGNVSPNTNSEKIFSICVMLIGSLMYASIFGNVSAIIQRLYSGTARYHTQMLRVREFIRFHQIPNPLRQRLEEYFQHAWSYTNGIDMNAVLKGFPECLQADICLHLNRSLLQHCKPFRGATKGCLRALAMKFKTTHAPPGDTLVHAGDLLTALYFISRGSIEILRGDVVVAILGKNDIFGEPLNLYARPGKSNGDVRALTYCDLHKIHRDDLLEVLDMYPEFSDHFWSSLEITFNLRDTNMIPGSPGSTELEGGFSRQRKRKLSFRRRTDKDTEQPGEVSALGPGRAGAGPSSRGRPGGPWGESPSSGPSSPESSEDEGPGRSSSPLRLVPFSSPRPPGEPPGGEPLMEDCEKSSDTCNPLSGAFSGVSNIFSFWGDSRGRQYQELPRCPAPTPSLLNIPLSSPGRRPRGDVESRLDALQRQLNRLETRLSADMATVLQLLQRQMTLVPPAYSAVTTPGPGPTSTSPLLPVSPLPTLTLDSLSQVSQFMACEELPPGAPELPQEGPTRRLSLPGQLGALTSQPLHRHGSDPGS

solubility kinetic at 6 h [1] [µM]	Papp at 30 min, 0.05 mM [2] [×10⁻⁶ cm/s]	half-life at 1 µM [3] [min]	half-life at 1 µM [4] [min]	half-life at 1 µM [5] [min]	fraction unbound at 4 h, 5 µM [6, 19]	Papp A→B at 2 h, 10 µM [8] [×10⁻⁶ cm/s]	Papp B→A at 2 h, 10 µM [8] [×10⁻⁶ cm/s]	SMILES	EC50 [7] [µM]	Emax [7] [%]	Emax at 72 h [9] [%]	EC50 [10] [µM]	EC50 ([11]; IDH1 WT EC50, Biochemical) [µM]	Emax [11] [%]	EC50 [12] [µM]	Emax ([12]; read-out: IDH2 % EMax) [%]	EC50 [13] [nM]	Emax [13] [%]	Emax [14] [%]	Emax ([12]; read-out: IDH2 WT % EMax) [%]	also measured
0.374 (≈ 0.18 µg/mL)	523	4.6	4.5	3.1	0.00083	0.85	12.5	O=C(Nc1cccc(C(F)(F)F)c1)Nc1cc(S(=O)(=O)NC2CC2)ccc1-c1ccsc1 [AGI-6780]	25.1	99.8	108	21.9	> 30	8.1		85.2		74.4			fraction unbound at 4 h, 5 µM [6, 18]: 0.001
0.458 (≈ 0.14 µg/mL)	482	13.5	26.7	20.6	0.00011	0.57	2.34	CC(C)Nc1nc(Nc2ccccc2)nc(-c2ccccc2)n1 [IDH2-C100]	> 30	7.2	31.5	> 30	> 30	11.8	6.59	84.7	343	72.2			IC50 [13]: ~1000 nM
								CC(C)[C@H]1COC(=O)N1c1ccnc(N[C@@H](C)c2ccc(CN3CCC(F)(F)CC3)cc2)n1 [Novartis 224]							> 30		> 30000	3.4	109	19.4 ± 11.4	EC50 [14]: 221 nM; Emax [15]: 68%; EC50 [15]: 121 nM; EC50 [16]: 98 nM; Emax [16]: 87.2%; EC50 [17]: 412 nM; Emax [17]: 86.3%
								CC(C)[C@H]1COC(=O)N1c1ccnc(N[C@@H](C)c2ccc(C(=O)NC3CCCC3)c(Cl)c2)n1 [Novartis 530]					3.5	102 ± 5.8	> 30		> 30000	3.9	88.2	17.3 ± 4.4	EC50 [14]: 78 nM; Emax [15]: 70.5%; EC50 [15]: 76 nM; EC50 [16]: 69 nM; Emax [16]: 92.4%; EC50 [17]: 571 nM; Emax [17]: 86.9%; EC50 ([11]; IDH1 WT EC50, purified enzyme): 3.51 ± 0.17 µM
								CC(=O)N1CCN(Cc2ccc([C@H](C)Nc3nccc(N4C(=O)OC[C@@H]4C(C)C)n3)cc2)CC1 [Novartis 556]						90 ± 7.4	> 30					20.7 ± 5.4	unbound fraction in human plasma ([6]; 5 µM): ~ 10 % unbound; EC50 ([11]; IDH1 WT EC50, purified enzyme): 10.5 ± 1.01 µM
								CC(C)(C)CC(C)(C)c1cc(Cn2ccnc2)c(O)c(Cn2ccnc2)c1 [Sanofi 1]						18.8 ± 2.2	> 30	26.7	> 30000	3.2	29.3	19.9 ± 8	EC50 [14]: > 30000 nM; Emax [15]: 28.8%; EC50 [15]: > 30000 nM; EC50 [16]: > 30000 nM; Emax [16]: 35.3%; EC50 [17]: > 30000 nM; Emax [17]: 47.3%

SMILES	solubility kinetic at 6 h [1] [µM]	Papp at 30 min, 0.05 mM [2] [×10⁻⁶ cm/s]	half-life at 1 µM [3] [min]	half-life at 1 µM [4] [min]	half-life at 1 µM [5] [min]	fraction unbound at 4 h, 5 µM [6, 19]	Papp A→B at 2 h, 10 µM [8] [×10⁻⁶ cm/s]	Papp B→A at 2 h, 10 µM [8] [×10⁻⁶ cm/s]	EC50 [7] [µM]	Emax [7] [%]	Emax at 72 h [9] [%]	EC50 [10] [µM]	EC50 ([11]; IDH1 WT EC50, Biochemical) [µM]	Emax [11] [%]	EC50 [12] [µM]	Emax ([12]; read-out: IDH2 % EMax) [%]	EC50 [13] [nM]	Emax [13] [%]	Emax [14] [%]	Emax ([12]; read-out: IDH2 WT % EMax) [%]	also measured
CC(C)(O)CNc1nc(Nc2ccnc(C(F)(F)F)c2)nc(-c2cccc(C(F)(F)F)n2)n1 [AG-221, Enasidenib]	14.2 (≈ 6.72 µg/mL)	1310	> 120	> 120	> 120	0.00637	9.41	23.8	> 30	33.2	84.8	18.4	15.1	57.7	> 30	83.4	44	87.2			fraction unbound at 4 h, 5 µM [6, 18]: 0.006; efflux ratio at 2 h, 10 µM [8]: 2.54; IC50 [13]: 65 nM
